# System: peripheral blood mononuclear cells (PBMC)
# Assay: qPCR of precursor gene (pre-mRNA) expression in PBMC, Table 2
# Type: cell-based, human
# Settings: three hours
# Description: Since it is not easy to obtain a cancer tissue clinically, the measurement of the marker in hemocytes readily obtainable in peripheral blood would be more useful. It was then examined whether the marker gene obtained in cancer cells could change in peripheral blood mononuclear cells in a similar manner as observed in the cancer cells. Specifically peripheral blood was taken from three normal individuals (volunteers) and peripheral blood mononuclear cells were purified and treated with (8E,12E,14E)-7-((4-cycloheptylpiperazin-1-yl)carbonyl)oxy-3,6,16,21-tetrahydroxy-6,10,12,16,20-pentamethyl-18,19-epoxytricosa-8,12,14-trien-11-olide for three hours, followed by measurement of change in expression of the precursor gene (pre-mRNA) by qPCR.
# Ficoll-Paque PLUS solution (Amersham, 17-1440-02) was slowly added to the blood taken (with heparin added) from healthy individuals to form a layer underneath the blood (15 mL of Ficoll-Paque PLUS solution was added to 25 mL of blood). After the mixture was centrifuged at 1500 rpm for 30 min, the upper part containing platelets was removed and then a layer containing mononuclear cells was transferred to another tube. The cells were suspended in PBS and centrifuged at 1500 rpm for 5 min, followed by removal of the supernatant. After these steps were repeated twice, the PBMC was suspended in RPMI1640 (containing 10% FBS, penicillin, and streptomycin) and the number of the cells was then counted.
# PBMC was suspended in RPMI1640 medium (containing 10% FBS, penicillin, and streptomycin) to 5×10^6 cells/ml and 1 ml of the suspension was plated per well of a 24-well plate. Immediately, 111 μl of 10 times-concentrated (8E,12E,14E)-7-((4-cycloheptylpiperazin-1-yl)carbonyl)oxy-3,6,16,21-tetrahydroxy-6,10,12,16,20-pentamethyl-18,19-epoxytricosa-8,12,14-trien-11-olide was added to the well (six wells per each concentration tested). The cells were then cultured in an incubator with 5% carbon dioxide gas at 37° C. Three hours later, the supernatant was collected and centrifuged at 1500 rpm for five minutes. TRI reagent (SIGMA) (1 ml) was added to each well of the plate from which the supernatant was removed to harvest the cells, which was added to the centrifuged pellet to dissolve. RNA was purified in accordance with the protocol of TRI reagent. RNA was further purified using RNeasy (QIAGEN) and, in accordance with the protocol, DNaseI was added to the samples during the procedure. Absorbance at 260 nm was measured to quantify an amount of RNA.
# RNA was prepared to 30 ng/μl and cDNA was synthesized using TaqMan Reverse Transcription Reagents (Applied Biosystems). For the expression level of pre-mRNA of ID1, amplification was carried out by using TaqMan Universal PCR Master Mix (Applied Biosystems) with TaqMan Gene Expression Assays (Hs00704053_s1, Applied Biosystems) as a probe. For the expression level of pre-mRNA of DNAJB1, BZW1, NUP54, RIOK3, CDKN1B, STK17B, ADRM1, EIF4A1, FOXK2, GNB2L1, HSPA9B, HSPH1, KLHL18 and VIL2, reagents were prepared in accordance with each protocol by using POWER SYBR GREEN PCR MASTER MIX (Applied Biosystems) and primers with the sequence below (Invitrogen), and the expression level was measured with ABI7900 (Applied Biosystems). 18S rRNA was measured by both the TaqMan and SYBR methods. The expression level of 18S r RNA was measured with Hs99999901_s1 (Applied Biosystems) as primers for TaqMan and with 18S primers included in TaqMan Ribosomal RNA control reagents (4308329: Applied Biosystems) as primers for SYBR. Measured values were corrected using the expression level of 18S rRNA as an internal control. The expression level of each gene was calculated with the expression level in the cells treated without (8E,12E,14E)-7-((4-cycloheptylpiperazin-1-yl)carbonyl)oxy-3,6,16,21-tetrahydroxy-6,10,12,16,20-pentamethyl-18,19-epoxytricosa-8,12,14-trien-11-olide as 1.
compound,measurement,setting,value
"CCC(O)C(C)C1OC1CC(C)(O)/C=C/C=C(\C)C1OC(=O)CC(O)CCC(C)(O)C(OC(=O)N2CCN(C3CCCCCC3)CC2)/C=C/C1C (stereo not drawn) [E7107, (8E,12E,14E)-7-((4-cycloheptylpiperazin-1-yl)carbonyl)oxy-3,6,16,21-tetrahydroxy-6,10,12,16,20-pentamethyl-18,19-epoxytricosa-8,12,14-trien-11-olide]",expression level of pre-mRNA of ADRM1 (untreated cells as 1),E7107 3 nM,1.8
same,expression level of pre-mRNA of BZW1 (untreated cells as 1),E7107 3 nM,1.72
same,expression level of pre-mRNA of CDKN1B (untreated cells as 1),E7107 3 nM,1.27
same,expression level of pre-mRNA of DNAJB1 (untreated cells as 1),E7107 3 nM,2.25
same,expression level of pre-mRNA of EIF4A1 (untreated cells as 1),E7107 3 nM,2.17
same,expression level of pre-mRNA of FOXK2 (untreated cells as 1),E7107 3 nM,2.1
same,expression level of pre-mRNA of GNB2L1 (untreated cells as 1),E7107 3 nM,2.47
same,expression level of pre-mRNA of HSPA9 (untreated cells as 1),E7107 3 nM,1.87
same,expression level of pre-mRNA of HSPH1 (untreated cells as 1),E7107 3 nM,1.26
same,expression level of pre-mRNA of ID1 (untreated cells as 1),E7107 3 nM,3.31
same,expression level of pre-mRNA of KLHL18 (untreated cells as 1),E7107 3 nM,2.36
same,expression level of pre-mRNA of NUP54 (untreated cells as 1),E7107 3 nM,2.31
same,expression level of pre-mRNA of RIOK3 (untreated cells as 1),E7107 3 nM,2.59
same,expression level of pre-mRNA of STK17B (untreated cells as 1),E7107 3 nM,1.94
same,expression level of pre-mRNA of VIL2 (untreated cells as 1),E7107 3 nM,1.27
same,expression level of pre-mRNA of ADRM1 (untreated cells as 1),E7107 10 nM,2.68
same,expression level of pre-mRNA of BZW1 (untreated cells as 1),E7107 10 nM,2.34
same,expression level of pre-mRNA of CDKN1B (untreated cells as 1),E7107 10 nM,2.35
same,expression level of pre-mRNA of DNAJB1 (untreated cells as 1),E7107 10 nM,4.46
same,expression level of pre-mRNA of EIF4A1 (untreated cells as 1),E7107 10 nM,3.64
same,expression level of pre-mRNA of FOXK2 (untreated cells as 1),E7107 10 nM,2.68
same,expression level of pre-mRNA of GNB2L1 (untreated cells as 1),E7107 10 nM,2.74
same,expression level of pre-mRNA of HSPA9 (untreated cells as 1),E7107 10 nM,3.45
same,expression level of pre-mRNA of HSPH1 (untreated cells as 1),E7107 10 nM,1.88
same,expression level of pre-mRNA of ID1 (untreated cells as 1),E7107 10 nM,6
same,expression level of pre-mRNA of KLHL18 (untreated cells as 1),E7107 10 nM,2.97
same,expression level of pre-mRNA of NUP54 (untreated cells as 1),E7107 10 nM,2.46
same,expression level of pre-mRNA of RIOK3 (untreated cells as 1),E7107 10 nM,3.57
same,expression level of pre-mRNA of STK17B (untreated cells as 1),E7107 10 nM,3.44
same,expression level of pre-mRNA of VIL2 (untreated cells as 1),E7107 10 nM,2.87
same,expression level of pre-mRNA of ADRM1 (untreated cells as 1),E7107 30 nM,2.59
same,expression level of pre-mRNA of BZW1 (untreated cells as 1),E7107 30 nM,3.26
same,expression level of pre-mRNA of CDKN1B (untreated cells as 1),E7107 30 nM,4.9
same,expression level of pre-mRNA of DNAJB1 (untreated cells as 1),E7107 30 nM,7.42
same,expression level of pre-mRNA of EIF4A1 (untreated cells as 1),E7107 30 nM,4.36
same,expression level of pre-mRNA of FOXK2 (untreated cells as 1),E7107 30 nM,2.31
same,expression level of pre-mRNA of GNB2L1 (untreated cells as 1),E7107 30 nM,2.23
same,expression level of pre-mRNA of HSPA9 (untreated cells as 1),E7107 30 nM,2.33
same,expression level of pre-mRNA of HSPH1 (untreated cells as 1),E7107 30 nM,2.68
same,expression level of pre-mRNA of ID1 (untreated cells as 1),E7107 30 nM,10.57
same,expression level of pre-mRNA of KLHL18 (untreated cells as 1),E7107 30 nM,2.6
same,expression level of pre-mRNA of NUP54 (untreated cells as 1),E7107 30 nM,1.93
same,expression level of pre-mRNA of RIOK3 (untreated cells as 1),E7107 30 nM,2.89
same,expression level of pre-mRNA of STK17B (untreated cells as 1),E7107 30 nM,3.99
same,expression level of pre-mRNA of VIL2 (untreated cells as 1),E7107 30 nM,4.89

# Source: US20100021918A1, “METHOD FOR ASSAYING ACTION OF ANTITUMOR AGENT USING SPLICING DEFECTS AS INDEX” (Eisai R&D Management Co., Ltd., priority 2007, published 2010)
